In ChEMBL document CHEMBL3865848, “Macrocyclic Inhibitors of ERK2 Kinase” (ACS Med Chem Lett, 2016):

Target: Mitogen-activated protein kinase 1 (Homo sapiens, UniProt P28482)
Sequence (P28482 whole entry): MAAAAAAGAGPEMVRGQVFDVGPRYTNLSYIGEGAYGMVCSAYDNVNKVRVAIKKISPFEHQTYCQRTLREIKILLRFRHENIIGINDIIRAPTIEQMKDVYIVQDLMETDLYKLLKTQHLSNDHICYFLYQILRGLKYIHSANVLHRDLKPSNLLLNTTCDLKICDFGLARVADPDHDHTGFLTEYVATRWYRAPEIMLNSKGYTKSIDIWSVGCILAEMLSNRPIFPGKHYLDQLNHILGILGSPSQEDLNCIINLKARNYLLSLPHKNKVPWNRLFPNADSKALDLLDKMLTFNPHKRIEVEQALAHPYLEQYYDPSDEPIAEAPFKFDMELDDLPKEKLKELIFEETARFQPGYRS
Description: Inhibition of human activated ERK2 assessed as reduction in phosphorylation activity preincubated for 15 mins followed by addition of IMAP peptide as substrate and ATP measured after 60 mins by fluorescence polarization method

| SMILES | IC50 |
| --- | --- |
| CCn1ncc2cc3nc(c21)CCCO[C@H](O)[C@H](c1ccccc1)NC(=O)N3 | 24.3 nM |
| CCn1ncc2cc3nc(c21)CCCO[C@@H](O)[C@H](c1ccccc1)NC(=O)N3 | 118 nM |
